Here are results for 13 compounds from ChEMBL document CHEMBL3991601, “The target landscape of clinical kinase drugs” (Science, 2017).

The structures appear in SMILES notation. The source made the active and inactive calls.

Assay [1] has as its target Mitogen-activated protein kinase 7 (Homo sapiens, UniProt Q13164).
The target of assay [2] is Insulin receptor (Homo sapiens, UniProt P06213).
The target of assay [3] is Mitogen-activated protein kinase 1 (Homo sapiens, UniProt P28482).
Assay [4] has as its target T1, Membrane-associated tyrosine- and threonine-specific cdc2-inhibitory kinase (Homo sapiens, UniProt Q99640).
T1 sequence (Q99640 whole entry): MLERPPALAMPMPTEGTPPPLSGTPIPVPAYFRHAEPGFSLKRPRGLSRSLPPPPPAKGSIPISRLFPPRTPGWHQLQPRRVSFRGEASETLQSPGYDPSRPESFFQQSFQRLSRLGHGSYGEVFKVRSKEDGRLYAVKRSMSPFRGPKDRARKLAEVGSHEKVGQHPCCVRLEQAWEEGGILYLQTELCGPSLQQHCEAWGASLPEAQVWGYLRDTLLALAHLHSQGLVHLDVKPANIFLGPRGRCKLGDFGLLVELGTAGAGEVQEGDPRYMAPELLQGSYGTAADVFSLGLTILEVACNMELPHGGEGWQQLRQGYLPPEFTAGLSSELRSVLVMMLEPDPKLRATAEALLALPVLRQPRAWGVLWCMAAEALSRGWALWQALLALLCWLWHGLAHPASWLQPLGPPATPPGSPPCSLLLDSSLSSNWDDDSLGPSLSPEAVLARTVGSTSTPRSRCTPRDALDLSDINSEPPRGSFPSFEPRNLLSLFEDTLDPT

For assay [5], the target named is Citron Rho-interacting kinase (Homo sapiens, UniProt O14578).
Assay [6] has as its target Serine/threonine-protein kinase 16 (Homo sapiens, UniProt O75716).
The target of assay [7] is T2, dCTP pyrophosphatase 1 (Homo sapiens, UniProt Q9H773).
T2 sequence (Q9H773 whole entry): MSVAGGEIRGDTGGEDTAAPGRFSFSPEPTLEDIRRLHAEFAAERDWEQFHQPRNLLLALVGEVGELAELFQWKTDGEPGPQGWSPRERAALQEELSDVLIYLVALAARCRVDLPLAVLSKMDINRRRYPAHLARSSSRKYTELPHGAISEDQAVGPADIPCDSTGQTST

The target of assay [8] is Protein kinase C alpha type (Homo sapiens, UniProt P17252).
In assay [9] the target is T3, Septin-9 (Homo sapiens, UniProt Q9UHD8).
T3 sequence (Q9UHD8 whole entry): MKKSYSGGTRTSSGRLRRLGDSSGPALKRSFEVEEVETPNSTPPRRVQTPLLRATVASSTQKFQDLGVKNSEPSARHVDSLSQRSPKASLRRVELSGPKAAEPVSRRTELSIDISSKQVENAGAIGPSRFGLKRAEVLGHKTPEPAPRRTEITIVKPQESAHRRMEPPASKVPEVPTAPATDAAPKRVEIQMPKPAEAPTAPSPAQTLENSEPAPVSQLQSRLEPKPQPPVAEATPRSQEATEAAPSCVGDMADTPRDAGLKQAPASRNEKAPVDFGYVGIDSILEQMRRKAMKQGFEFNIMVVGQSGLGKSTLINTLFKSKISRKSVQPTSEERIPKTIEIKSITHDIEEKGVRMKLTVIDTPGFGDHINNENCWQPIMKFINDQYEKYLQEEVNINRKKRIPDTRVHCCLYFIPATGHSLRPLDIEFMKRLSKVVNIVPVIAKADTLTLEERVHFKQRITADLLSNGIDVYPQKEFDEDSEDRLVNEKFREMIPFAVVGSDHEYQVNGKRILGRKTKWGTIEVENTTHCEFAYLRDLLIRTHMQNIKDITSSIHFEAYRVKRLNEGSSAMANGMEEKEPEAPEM

The target in assay [10] is T4, Peroxisomal acyl-coenzyme A oxidase 3 (Homo sapiens, UniProt O15254).
T4 sequence (O15254 whole entry): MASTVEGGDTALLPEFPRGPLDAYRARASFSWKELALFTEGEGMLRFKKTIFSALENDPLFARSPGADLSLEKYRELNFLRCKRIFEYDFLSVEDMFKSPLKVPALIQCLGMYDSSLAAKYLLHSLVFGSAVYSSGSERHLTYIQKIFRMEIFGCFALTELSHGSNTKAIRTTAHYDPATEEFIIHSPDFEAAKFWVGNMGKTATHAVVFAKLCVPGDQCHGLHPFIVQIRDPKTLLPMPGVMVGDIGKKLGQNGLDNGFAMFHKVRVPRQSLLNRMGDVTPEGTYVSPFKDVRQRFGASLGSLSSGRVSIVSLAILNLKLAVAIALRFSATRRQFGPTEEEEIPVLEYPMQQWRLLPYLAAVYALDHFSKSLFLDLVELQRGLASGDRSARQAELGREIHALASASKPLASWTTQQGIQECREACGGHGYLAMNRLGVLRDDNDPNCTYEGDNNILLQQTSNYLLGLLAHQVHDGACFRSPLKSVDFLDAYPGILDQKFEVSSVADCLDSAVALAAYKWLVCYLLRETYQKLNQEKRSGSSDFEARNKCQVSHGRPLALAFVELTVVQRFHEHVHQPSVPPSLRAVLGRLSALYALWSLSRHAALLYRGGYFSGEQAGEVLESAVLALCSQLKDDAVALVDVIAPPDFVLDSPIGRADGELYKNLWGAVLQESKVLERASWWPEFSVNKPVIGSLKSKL

For assay [11], the target named is S-adenosylmethionine synthase isoform type-2 (Homo sapiens, UniProt P31153).
Assay [12] addresses Casein kinase I isoform alpha (Homo sapiens, UniProt P48729).
Assay [13] has as its target Serine/threonine-protein kinase PAK 4 (Homo sapiens, UniProt O96013).
Also: in the data inactive means no Kd found up to 30 µM.

Chain of Citron Rho-interacting kinase (O14578 whole entry): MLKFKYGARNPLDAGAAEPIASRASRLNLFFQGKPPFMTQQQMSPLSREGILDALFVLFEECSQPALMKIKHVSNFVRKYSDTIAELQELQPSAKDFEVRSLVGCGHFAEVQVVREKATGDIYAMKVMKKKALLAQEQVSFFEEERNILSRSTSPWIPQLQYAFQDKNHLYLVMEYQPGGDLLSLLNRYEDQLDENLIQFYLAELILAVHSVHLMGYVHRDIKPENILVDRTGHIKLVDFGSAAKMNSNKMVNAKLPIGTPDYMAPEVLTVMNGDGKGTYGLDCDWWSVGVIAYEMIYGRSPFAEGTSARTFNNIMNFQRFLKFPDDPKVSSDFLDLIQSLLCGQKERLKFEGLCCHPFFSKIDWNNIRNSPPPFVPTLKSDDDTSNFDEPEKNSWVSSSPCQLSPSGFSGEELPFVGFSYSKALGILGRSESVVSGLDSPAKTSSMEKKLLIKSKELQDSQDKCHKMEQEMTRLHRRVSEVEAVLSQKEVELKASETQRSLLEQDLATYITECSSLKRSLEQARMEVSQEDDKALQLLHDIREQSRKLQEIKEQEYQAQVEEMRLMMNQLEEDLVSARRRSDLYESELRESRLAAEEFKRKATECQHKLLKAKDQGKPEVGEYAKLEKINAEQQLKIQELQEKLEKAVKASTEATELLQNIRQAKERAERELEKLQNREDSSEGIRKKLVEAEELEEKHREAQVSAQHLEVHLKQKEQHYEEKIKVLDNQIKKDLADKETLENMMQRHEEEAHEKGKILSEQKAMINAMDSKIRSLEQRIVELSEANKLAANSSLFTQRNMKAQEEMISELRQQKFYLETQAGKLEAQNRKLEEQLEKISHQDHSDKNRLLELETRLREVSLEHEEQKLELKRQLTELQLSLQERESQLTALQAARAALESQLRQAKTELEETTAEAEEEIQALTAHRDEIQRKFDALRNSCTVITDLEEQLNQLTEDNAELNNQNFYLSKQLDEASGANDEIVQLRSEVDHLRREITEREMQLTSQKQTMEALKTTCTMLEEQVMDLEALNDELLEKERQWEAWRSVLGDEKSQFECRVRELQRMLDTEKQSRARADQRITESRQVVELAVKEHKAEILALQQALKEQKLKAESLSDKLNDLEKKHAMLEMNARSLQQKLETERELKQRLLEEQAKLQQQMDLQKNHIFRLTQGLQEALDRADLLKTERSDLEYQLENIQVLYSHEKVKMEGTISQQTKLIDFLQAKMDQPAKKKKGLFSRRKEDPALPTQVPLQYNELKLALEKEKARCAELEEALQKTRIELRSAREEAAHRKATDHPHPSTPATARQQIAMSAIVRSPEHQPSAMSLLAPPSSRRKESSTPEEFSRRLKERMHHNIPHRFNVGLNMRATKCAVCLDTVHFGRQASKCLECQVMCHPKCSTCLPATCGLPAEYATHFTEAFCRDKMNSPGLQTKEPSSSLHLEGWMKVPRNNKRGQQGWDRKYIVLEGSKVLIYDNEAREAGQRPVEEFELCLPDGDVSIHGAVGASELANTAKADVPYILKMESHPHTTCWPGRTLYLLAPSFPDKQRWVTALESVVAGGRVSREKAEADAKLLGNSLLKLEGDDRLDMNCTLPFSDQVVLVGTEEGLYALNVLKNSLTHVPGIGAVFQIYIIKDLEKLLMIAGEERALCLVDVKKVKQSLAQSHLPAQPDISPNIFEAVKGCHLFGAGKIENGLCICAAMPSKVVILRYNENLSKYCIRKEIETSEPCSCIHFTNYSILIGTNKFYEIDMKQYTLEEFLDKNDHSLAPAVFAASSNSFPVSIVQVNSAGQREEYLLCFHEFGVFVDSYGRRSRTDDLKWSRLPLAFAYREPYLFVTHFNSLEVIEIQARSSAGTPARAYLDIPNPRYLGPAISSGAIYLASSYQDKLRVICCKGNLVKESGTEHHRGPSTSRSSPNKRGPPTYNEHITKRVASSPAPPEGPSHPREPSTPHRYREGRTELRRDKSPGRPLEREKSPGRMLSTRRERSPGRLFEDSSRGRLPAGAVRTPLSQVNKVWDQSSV
Chain of Insulin receptor (P06213 28-758 limits assumed): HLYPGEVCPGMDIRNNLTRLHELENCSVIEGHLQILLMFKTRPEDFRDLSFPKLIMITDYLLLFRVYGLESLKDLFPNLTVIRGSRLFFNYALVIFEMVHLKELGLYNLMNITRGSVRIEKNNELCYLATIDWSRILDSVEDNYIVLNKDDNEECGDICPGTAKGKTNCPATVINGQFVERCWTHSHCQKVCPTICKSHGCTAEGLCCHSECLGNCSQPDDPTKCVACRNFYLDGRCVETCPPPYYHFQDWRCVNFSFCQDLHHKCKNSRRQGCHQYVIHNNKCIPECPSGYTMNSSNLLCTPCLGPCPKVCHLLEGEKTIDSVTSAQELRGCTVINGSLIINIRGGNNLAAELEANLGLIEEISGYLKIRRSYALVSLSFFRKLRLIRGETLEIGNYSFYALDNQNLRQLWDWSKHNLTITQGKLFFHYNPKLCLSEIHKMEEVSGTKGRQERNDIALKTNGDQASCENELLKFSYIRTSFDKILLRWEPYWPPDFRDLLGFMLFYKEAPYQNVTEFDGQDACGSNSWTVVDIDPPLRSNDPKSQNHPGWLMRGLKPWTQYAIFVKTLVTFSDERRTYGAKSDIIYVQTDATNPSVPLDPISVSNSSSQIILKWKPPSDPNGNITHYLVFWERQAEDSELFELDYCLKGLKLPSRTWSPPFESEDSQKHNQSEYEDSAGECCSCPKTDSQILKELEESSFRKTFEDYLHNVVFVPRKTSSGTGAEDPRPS
Chain of Insulin receptor (P06213 763-1382 limits assumed): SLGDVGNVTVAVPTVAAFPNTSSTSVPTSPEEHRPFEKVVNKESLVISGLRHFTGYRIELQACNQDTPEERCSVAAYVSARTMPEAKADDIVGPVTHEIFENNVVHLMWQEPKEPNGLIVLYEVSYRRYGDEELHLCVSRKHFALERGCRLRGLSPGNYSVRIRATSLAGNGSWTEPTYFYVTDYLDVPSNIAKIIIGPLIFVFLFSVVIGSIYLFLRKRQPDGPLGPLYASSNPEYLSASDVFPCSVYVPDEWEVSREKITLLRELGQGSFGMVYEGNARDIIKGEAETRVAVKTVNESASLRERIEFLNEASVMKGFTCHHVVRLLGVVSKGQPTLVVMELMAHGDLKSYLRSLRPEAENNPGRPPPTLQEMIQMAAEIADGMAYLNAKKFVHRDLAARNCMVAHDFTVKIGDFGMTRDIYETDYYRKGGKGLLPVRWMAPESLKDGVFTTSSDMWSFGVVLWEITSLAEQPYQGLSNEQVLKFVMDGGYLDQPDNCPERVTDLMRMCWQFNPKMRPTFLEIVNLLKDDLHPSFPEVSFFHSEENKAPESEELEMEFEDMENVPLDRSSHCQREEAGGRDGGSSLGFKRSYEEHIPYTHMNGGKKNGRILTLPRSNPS
Chain of S-adenosylmethionine synthase isoform type-2 (P31153 whole entry, canonical isoform): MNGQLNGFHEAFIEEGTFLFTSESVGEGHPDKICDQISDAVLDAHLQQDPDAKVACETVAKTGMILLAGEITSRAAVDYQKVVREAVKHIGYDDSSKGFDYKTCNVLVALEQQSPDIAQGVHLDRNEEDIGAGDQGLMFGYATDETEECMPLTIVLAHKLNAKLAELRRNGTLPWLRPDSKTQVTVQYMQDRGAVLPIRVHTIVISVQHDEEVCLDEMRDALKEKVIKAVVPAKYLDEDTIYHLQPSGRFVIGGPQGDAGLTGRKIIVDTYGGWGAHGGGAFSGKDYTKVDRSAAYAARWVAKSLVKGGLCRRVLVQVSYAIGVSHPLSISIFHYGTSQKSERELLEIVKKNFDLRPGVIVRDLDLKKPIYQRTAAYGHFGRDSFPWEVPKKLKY
Chain of Serine/threonine-protein kinase 16 (O75716 whole entry): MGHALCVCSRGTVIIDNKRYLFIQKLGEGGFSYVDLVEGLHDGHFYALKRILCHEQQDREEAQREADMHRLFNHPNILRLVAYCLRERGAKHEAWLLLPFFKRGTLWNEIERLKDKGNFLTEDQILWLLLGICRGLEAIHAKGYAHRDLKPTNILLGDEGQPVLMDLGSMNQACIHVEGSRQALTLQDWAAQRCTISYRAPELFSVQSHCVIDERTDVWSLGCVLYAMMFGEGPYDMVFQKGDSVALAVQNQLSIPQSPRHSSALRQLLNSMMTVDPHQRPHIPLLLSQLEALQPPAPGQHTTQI

With `CCN(CCCOc1ccc2c(Nc3cc(CC(=O)Nc4cccc(F)c4)n[nH]3)ncnc2c1)CCOP(=O)(O)O` [BARASERTIB], the Kd in assay [1], in assay [2], in assay [3], in [4], in [5] and in assay [6] was > 30 µM (inactive) each time. Further, the Kd in assay [7], in [8], in assay [9], in [10] and in assay [11] was > 30 µM (inactive) each time.

With `C=CCn1c(=O)c2cnc(Nc3ccc(N4CCN(C)CC4)cc3)nc2n1-c1cccc(C(C)(C)O)n1` [ADAVOSERTIB], the Kd in assay [1], in assay [2], in assay [3], in assay [5], in [6] and in assay [7] was > 30 µM (inactive) throughout. The Kd in assay [8], in [9], in [10] and in assay [11] was > 30 µM (inactive) in each case.

With `COc1cc2c(N3CCN(C(=O)Nc4ccc(OC(C)C)cc4)CC3)ncnc2cc1OCCCN1CCCCC1` [TANDUTINIB], the Kd in [7] was > 30 µM (inactive); in assay [8], > 30 µM (inactive); in [9], 0.01 µM; in assay [10], > 30 µM (inactive); in assay [11], > 30 µM (inactive).

For `COc1cc2c(Oc3ccc4[nH]c(C)cc4c3F)ncnc2cc1OCCCN1CCCC1` [CEDIRANIB], the Kd in assay [7], in assay [8], in [9], in assay [10] and in assay [11] was > 30 µM (inactive) each time.

`Cn1cnc2c(F)c(Nc3ccc(Br)cc3Cl)c(C(=O)NOCCO)cc21` [SELUMETINIB]: the Kd in [7], in [8], in assay [9], in [10] and in assay [11] was > 30 µM (inactive) in each case.

For the compound `CNC(=O)c1ccc(Nc2ncc(C(F)(F)F)c(NCc3nccnc3N(C)S(C)(=O)=O)n2)cc1` [DEFACTINIB], the Kd in assay [1], in assay [2], in assay [3], in assay [4], in [5] and in [12] was > 30 µM (inactive) each time. Also, the Kd is 22 µM (active) in assay [13]; > 30 µM (inactive) in [7]; > 30 µM (inactive) in [8]; > 30 µM (inactive) in [9]; > 30 µM (inactive) in assay [10]; > 30 µM (inactive) in [11].

With `CC1(COc2ccc3c(c2)ncn3-c2ccc3cccc(N4CCC(N)CC4)c3n2)COC1` [CRENOLANIB], the Kd in assay [1], in assay [2], in assay [3], in [4], in [5] and in [12] was > 30 µM (inactive) throughout. Moreover, the Kd in assay [6], in assay [7], in assay [8], in assay [9], in [10] and in assay [11] was > 30 µM (inactive) each time.

As to `CN(C)C/C=C/C(=O)Nc1cc2c(Nc3ccc(F)c(Cl)c3)ncnc2cc1O[C@H]1CCOC1` [AFATINIB], the Kd in assay [7], in [8], in [9], in assay [10] and in assay [11] was > 30 µM (inactive) in each case.

Take `CN(c1ncccc1CNc1nc(Nc2ccc3c(c2)CC(=O)N3)ncc1C(F)(F)F)S(C)(=O)=O` [PF-00562271]: the Kd in [3] was 1.24 µM (active); in [4], > 30 µM (inactive); in assay [5], > 30 µM (inactive); in assay [6], 0.138 µM (active); in [7] it was > 30 µM (inactive); in assay [8], > 30 µM (inactive). The Kd in assay [9], in assay [10] and in assay [11] was > 30 µM (inactive) each time.

As to `CC1(C)CNc2cc(NC(=O)c3cccnc3NCc3ccncc3)ccc21` [MOTESANIB], the Kd in assay [7], in assay [8], in [9], in assay [10] and in assay [11] was > 30 µM (inactive) in each case.

In the case of `C[C@@]1(C(=O)Nc2ccc(F)nc2)CCCN1c1nc(Nc2cc(C3CC3)n[nH]2)c2cccn2n1` [BMS-754807], the Kd in assay [7], in [8], in [9], in [10] and in assay [11] was > 30 µM (inactive) each time.

For `O=S(=O)(c1cccc2cnccc12)N1CCCNCC1` [FASUDIL], the Kd in assay [1] is > 30 µM (inactive); in assay [4], > 30 µM (inactive); in assay [5], 48.9 µM (active); in assay [13], > 30 µM (inactive); in [6] it was > 30 µM (inactive); in assay [7], > 30 µM (inactive). In addition, the Kd in assay [8], in assay [9], in assay [10] and in [11] was > 30 µM (inactive) each time.

Consider `Cn1c(=O)n(-c2ccc(C(C)(C)C#N)cc2)c2c3cc(-c4cnc5ccccc5c4)ccc3ncc21` [DACTOLISIB], for which the Kd in assay [1], in assay [2], in [3], in assay [4], in assay [5] and in assay [6] was > 30 µM (inactive) in each case. Moreover, the Kd in assay [7], in assay [8], in [9], in assay [10] and in assay [11] was > 30 µM (inactive) each time.

One may read the Kd as the equilibrium constant for the complex coming apart.
